Test results reported in patent publication US7427620B2, “Azole derivative useful as antifungal agents with reduced interaction with metabolic cytochromes” (Italfarmaco SPA, priority 2003, dated 2008).

Tests used:
CYP3A4 = molecular target: T1, CYP3A4 (Homo sapiens, UniProt P08684); assay: Inhibition of human cytochromes, fluorescent substrates; assay type: in vitro ADME; conditions: isoenzyme (Gentest), 37° C.
T1 construct: purchased Gentest
Procedure: (§1) Experiment B: Inhibition of Human Cytochromes by Compounds of the Formula (I)
(§2) The individual isoenzymes (Gentest) and the respective substrates were incubated in 96 well plates in buffer containing […] at 37° C. in the presence or absence of the compound under investigation. […] The degree of inhibition of each individual isoenzyme by known inhibitors was also assessed as a positive control.

CYP2D6 = molecular target: T2, CYP2D6 (Homo sapiens, UniProt P10635); assay: as above; assay type: in vitro ADME; conditions: isoenzyme (Gentest), 37° C.
T2 construct: purchased Gentest
T2 sequence (P10635 whole entry): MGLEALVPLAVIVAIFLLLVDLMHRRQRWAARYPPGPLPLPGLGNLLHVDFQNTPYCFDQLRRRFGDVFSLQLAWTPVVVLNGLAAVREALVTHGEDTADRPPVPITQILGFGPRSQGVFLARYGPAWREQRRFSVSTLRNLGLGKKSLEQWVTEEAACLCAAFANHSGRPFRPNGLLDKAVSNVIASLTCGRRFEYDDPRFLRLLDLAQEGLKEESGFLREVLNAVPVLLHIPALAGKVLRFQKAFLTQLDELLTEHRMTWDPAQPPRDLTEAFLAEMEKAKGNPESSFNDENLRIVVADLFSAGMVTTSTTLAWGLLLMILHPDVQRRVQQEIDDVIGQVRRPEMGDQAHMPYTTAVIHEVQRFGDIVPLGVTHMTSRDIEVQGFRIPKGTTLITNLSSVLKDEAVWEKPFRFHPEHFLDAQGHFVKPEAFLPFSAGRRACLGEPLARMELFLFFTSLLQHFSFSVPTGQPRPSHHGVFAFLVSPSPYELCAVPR
Procedure: as §1
as §2, with “Inhibition of the enzymatic activity of the most significant isoforms of human cytochromes by the compounds of the formula (I) was measured by using specific substrates which become fluorescent as a result of the metabolic action of a particular cytochrome isoform. The individual” for “The individual”

CYP2C9 = molecular target: T3, CYP2C9 (Homo sapiens, UniProt P11712); assay: as above; assay type: in vitro ADME; conditions: isoenzyme (Gentest), 37° C.
T3 construct: purchased Gentest
T3 sequence (P11712 whole entry): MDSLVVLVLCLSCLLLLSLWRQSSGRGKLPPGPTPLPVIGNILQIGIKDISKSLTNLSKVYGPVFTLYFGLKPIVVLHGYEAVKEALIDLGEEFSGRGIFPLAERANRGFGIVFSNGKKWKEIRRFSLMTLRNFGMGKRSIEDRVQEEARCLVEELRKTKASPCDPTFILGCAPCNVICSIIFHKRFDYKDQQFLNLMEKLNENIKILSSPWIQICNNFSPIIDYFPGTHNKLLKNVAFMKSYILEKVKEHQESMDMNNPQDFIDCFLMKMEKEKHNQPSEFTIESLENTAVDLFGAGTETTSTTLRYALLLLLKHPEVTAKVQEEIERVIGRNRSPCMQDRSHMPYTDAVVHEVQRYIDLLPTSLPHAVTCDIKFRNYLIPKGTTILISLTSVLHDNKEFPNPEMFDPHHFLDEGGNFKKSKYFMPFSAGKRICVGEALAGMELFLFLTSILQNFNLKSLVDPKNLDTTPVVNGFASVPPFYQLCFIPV
Procedure: as §1
as §2, with “Inhibition of the enzymatic activity of the most significant isoforms of human cytochromes by the compounds of the formula (I) was measured by using specific substrates which become fluorescent as a result of the metabolic action of a particular cytochrome isoform. The individual” for “The individual”

CYP2C19 = molecular target: T4, CYP2C19 (Homo sapiens, UniProt P33261); assay: as above; assay type: in vitro ADME; conditions: isoenzyme (Gentest), 37° C.
T4 construct: purchased Gentest
T4 sequence (P33261 whole entry): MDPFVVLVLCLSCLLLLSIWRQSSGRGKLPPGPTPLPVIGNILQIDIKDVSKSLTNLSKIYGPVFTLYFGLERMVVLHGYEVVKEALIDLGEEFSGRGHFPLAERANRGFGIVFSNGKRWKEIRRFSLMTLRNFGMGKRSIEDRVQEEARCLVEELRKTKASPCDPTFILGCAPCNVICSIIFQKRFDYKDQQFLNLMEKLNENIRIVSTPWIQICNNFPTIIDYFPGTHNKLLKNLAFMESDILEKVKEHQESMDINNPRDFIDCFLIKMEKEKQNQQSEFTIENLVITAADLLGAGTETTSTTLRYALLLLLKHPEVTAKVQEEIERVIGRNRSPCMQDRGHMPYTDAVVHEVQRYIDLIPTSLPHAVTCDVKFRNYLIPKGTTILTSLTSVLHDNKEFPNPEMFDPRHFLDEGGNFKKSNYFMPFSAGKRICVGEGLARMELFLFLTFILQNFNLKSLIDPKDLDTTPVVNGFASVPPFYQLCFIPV
Procedure: as §1
as §2, with “Inhibition of the enzymatic activity of the most significant isoforms of human cytochromes by the compounds of the formula (I) was measured by using specific substrates which become fluorescent as a result of the metabolic action of a particular cytochrome isoform. The individual” for “The individual”

CYP1A2 = molecular target: T5, CYP1A2 (Homo sapiens, UniProt P05177); assay: as above; assay type: in vitro ADME; conditions: isoenzyme (Gentest), 37° C.
T5 construct: purchased Gentest
T5 sequence (P05177 1-516): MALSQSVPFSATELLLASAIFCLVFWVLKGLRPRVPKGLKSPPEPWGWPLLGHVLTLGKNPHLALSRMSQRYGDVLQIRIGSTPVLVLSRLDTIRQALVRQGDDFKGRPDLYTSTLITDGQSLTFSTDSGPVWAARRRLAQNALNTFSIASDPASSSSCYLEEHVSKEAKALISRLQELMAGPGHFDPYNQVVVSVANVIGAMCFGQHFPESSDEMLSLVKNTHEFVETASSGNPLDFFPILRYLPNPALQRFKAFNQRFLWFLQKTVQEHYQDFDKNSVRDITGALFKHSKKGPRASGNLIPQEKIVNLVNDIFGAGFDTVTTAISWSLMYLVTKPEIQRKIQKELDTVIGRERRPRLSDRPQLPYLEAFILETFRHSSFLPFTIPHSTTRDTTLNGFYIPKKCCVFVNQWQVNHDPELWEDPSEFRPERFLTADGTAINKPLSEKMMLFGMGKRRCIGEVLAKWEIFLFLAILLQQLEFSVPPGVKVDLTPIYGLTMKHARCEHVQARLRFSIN
Procedure: as §1
as §2, with “Inhibition of the enzymatic activity of the most significant isoforms of human cytochromes by the compounds of the formula (I) was measured by using specific substrates which become fluorescent as a result of the metabolic action of a particular cytochrome isoform. The individual” for “The individual”

Aspergillus fumigatus = assay: Antifungal activity, liquid phase microdilution (NCCLS M27/M38-P); assay type: cell-based; design: IC50 (minimum concentration to bring about 50% inhibition): unit not given here
Procedure: (§3) Experiment A: Antifungal Activity of Compounds of the Formula (I)
(§4) The antifungal activity of the compounds of the formula (I) was determined using various strains of yeast and filamentous fungi. […] Table no.

Candida albicans [1] = assay: Mouse model of systemic candidiasis, survival; assay type: in vivo, CD1 mice; conditions: for Average survival (days) ± S.D.: observed until day 30
Procedure: Experiment C: Study of the Efficacy of Compounds of the Formula (I) in a Mouse Model of Systemic Candidiasis.
The C. albicans isolate was cultured for 24 h in yeast dextrose broth. The blastospores were recovered by centrifugation, repeatedly washed in sterile saline solution and the inoculum adjusted to the desired concentration. The inoculum was verified by a subsequent count of CFU/ml on Sabouraud plates.
The mice were then inoculated intravenously (0.2 ml/mouse).
24 hours after inoculation with C. albicans, the animals were randomised into the following treatment groups (10 mice/group): • 1. […] Compound under investigation: 50 mg/kg/day (two 25 mg/kg treatments twice daily at 12 hour intervals) • 3. Compound under investigation; 10 mg/kg/day (two 5 mg/kg treatments twice daily at 12 hour intervals) • 4. Control (placebo)
The compounds were administered orally (suspension in PEG 200, 0.2 ml/mouse) for 10 consecutive days and the animals were observed until day 30. The survival curves between the various treatment groups and between these groups and the control group were evaluated using the Kaplan-Meier method.

Candida parapsilosis = assay: Antifungal activity, liquid phase microdilution (NCCLS M27/M38-P); assay type: cell-based; conditions: Candida parapsilosis strain ATCC22019
Procedure: as §3, §4

Candida glabrata = assay: as above; assay type: cell-based; conditions: Candida glabrata strain 02-0902
Procedure: as §3, §4

Candida albicans [2] = assay: as above; assay type: cell-based
Procedure: as §3, §4

[3] = 10 mg/kg/day orally (5 mg/kg twice daily) for 10 days
[4] = 50 mg/kg/day orally (25 mg/kg twice daily) for 10 days

T1 sequence (P08684 whole entry): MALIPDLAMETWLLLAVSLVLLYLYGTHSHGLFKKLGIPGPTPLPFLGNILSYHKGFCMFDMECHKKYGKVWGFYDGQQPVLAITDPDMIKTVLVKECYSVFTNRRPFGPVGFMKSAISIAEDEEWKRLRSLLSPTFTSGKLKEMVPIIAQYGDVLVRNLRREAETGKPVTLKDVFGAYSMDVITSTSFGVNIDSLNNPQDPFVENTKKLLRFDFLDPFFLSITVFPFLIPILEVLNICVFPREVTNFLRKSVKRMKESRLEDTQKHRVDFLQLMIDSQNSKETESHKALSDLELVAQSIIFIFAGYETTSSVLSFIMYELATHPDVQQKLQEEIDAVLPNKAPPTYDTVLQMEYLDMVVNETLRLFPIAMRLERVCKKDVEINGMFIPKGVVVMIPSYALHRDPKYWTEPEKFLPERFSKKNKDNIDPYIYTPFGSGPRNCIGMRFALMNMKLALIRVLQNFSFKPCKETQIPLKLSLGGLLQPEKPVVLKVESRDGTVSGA

cis(±)-4-{4-[4-{4-[2-(pyridin-2-yl)-2-(1H-1,2,4-triazol-1-ylmethyl)-1,3-dioxolan-4-yl-methoxy]phenyl}-1-piperazinyl]-phenyl}-2-(1-(R,S)methylpropyl)-2,4-dihydro-3H-1,2,4-triazol-3-one [Example 9]
IC50 (CYP3A4): 0.22 ± 0.05 µM
IC50 (CYP2D6): > 100 µM
IC50 (CYP2C9): 54.1 ± 5.2 µM
IC50 (CYP2C19): 40.7 ± 12.7 µM
IC50 (CYP1A2): > 100 µM
IC50 (minimum concentration to bring about 50% inhibition) (Aspergillus fumigatus; Aspergillus fumigatus strain 34): 0.25
IC50 (minimum concentration to bring about 50% inhibition) (Aspergillus fumigatus; Aspergillus fumigatus strain 99-2135): 0.25
Surviving mice 21 days after infection (Candida albicans [1]; [3]): 0%
Average survival (days) ± S.D. (Candida albicans [1]; [3]): 6.6 ± 0.8 days
Surviving mice 21 days after infection (Candida albicans [1]; [4]): 10%
Average survival (days) ± S.D. (Candida albicans [1]; [4]): 9.1 ± 1.5 days
IC50 (minimum concentration to bring about 50% inhibition) (Candida parapsilosis): ≦0.03 mg/ml
IC50 (minimum concentration to bring about 50% inhibition) (Candida glabrata): 1 mg/mL
IC50 (minimum concentration to bring about 50% inhibition) (Candida albicans [2]; Candida albicans strain 21): 39 mg/mL
IC50 (minimum concentration to bring about 50% inhibition) (Candida albicans [2]; Candida albicans strain gen-45): ≦0.03 mg/ml
